Key:
Format in all cases: functional, cell-based
[1] = system: MDA-MB-231; assay: In vitro inhibition of [3H]spermidine uptake in MDA-MB-231 (Human breast cancer) cells.
[2] = system: MDA-MB-231; assay: In vitro inhibition of MDA-MB-231 (Human breast caner) cell growth.
[3] = system: MDA-MB-231; assay: Inhibition of [3H]spermidine transport into MDA-MB-231 (human breast cancer) cells.

SMILES | Ki [1] | EC50 [2] | Ki [3]
NCCCNCCCCNCCCNC(=O)[C@@H](N)Cc1ccccc1 | 443 nM | > 100000 nM | –
C[C@H](O)[C@H](N)C(=O)NCCCNCCCCNCCCN | 213 nM | 6000 nM | –
C[C@H](N)C(=O)NCCCNCCCCNCCCN | 144 nM | > 300000 nM | –
NCCCNCCCCNCCCNC(=O)CCN | 65 nM | > 300000 nM | –
NCCCNCCCCNCCCNC(=O)[C@@H]1CCCN1 | 38 nM | 93000 nM | –
CC(C)(N)C(=O)NCCCNCCCCNCCCN | 191 nM | 8000 nM | –
NCCCNCCCCNCCCNC(=O)[C@@H](N)CCCN | 47 nM | 3000 nM | –
N=C(N)NCCCCCCC(=O)NC(O)C(=O)NCCCCNCCCN (stereo not drawn) | – | – | 81 nM
NCCCNCCCCNCCCNC(=O)CC12CC3CC(CC(C3)C1)C2 | – | – | 256 nM
CSCC[C@H](N)C(=O)NCCCNCCCCNCCCN | 65 nM | > 300000 nM | –
CC(C)[C@@H](N)C(=O)NCCCNCCCCNCCCN | 58 nM | 9000 nM | –
CC(C)(C)OC(=O)NCCCNCCCCNCCCN | – | – | 86 nM
NCCCCN [PUTRESCINE] | – | – | 1280 nM
CC(=O)NCCCNCCCNCCCN | – | – | > 1000 nM
NCCCNCCCCNCCC(=O)NCCCCCNC(=O)[C@H](CC(N)=O)NC(=O)Cc1ccc(O)cc1O [JORO SPIDER TOXIN 3] | – | – | 190 nM
CC(C)[C@H](N)C(=O)NCCCNCCCCNCCCN | 84 nM | 16000 nM | –

SMILES | Ki [1] | EC50 [2] | Ki [3]
NCCCCNCCCN [SPERMIDINE] | – | – | 113 nM
NCCCNCCCCNCCCNC(=O)[C@@H](N)CC(N)=O | 95 nM | 98000 nM | –
NCCCNCCCCNCCCNC(=O)[C@@H](N)CCC(N)=O | 177 nM | > 300000 nM | –
CCC(C)[C@H](N)C(=O)NCCCNCCCCNCCCN (stereo partly drawn) | 150 nM | 9000 nM | –
NCCCNCCCCNCCCNC(=O)[C@@H](N)CC1CCCCC1 | 196 nM | 8000 nM | –
CC(C)(C)[C@H](N)C(=O)NCCCNCCCCNCCCN | 127 nM | 11000 nM | –
CC(C)C[C@H](N)C(=O)NCCCNCCCCNCCCN | 46 nM | > 300000 nM | –
NCCCNCCCCNCCCNC(=O)[C@@H](N)Cc1ccc(O)cc1 | 116 nM | 95000 nM | –
NCCCNCCCCNCCCNC(=O)C12CC3CC(CC(C3)C1)C2 | – | – | 672 nM
NCCCNCCCCNCCCNC(=O)Cc1cccc2ccccc12 | – | – | 178 nM
NCCCNCCCCNCCCN [SPERMINE] | – | – | 280 nM
NCCCNCCCCNCCCNC(=O)CN | 87 nM | > 100000 nM | –
CCCCCC(=O)NCCCNCCCCNCCCN | – | – | 284 nM
NCCCNCCCCNCCCNC(=O)[C@@H](N)CO | 55 nM | 26000 nM | –
NCCCNCCCCNCCCNC(=O)[C@H](N)Cc1c[nH]c2ccccc12 | 63 nM | 205000 nM | –
NCCCNCCCCNCCCNC(=O)[C@@H](N)Cc1c[nH]c2ccccc12 | 119 nM | 15000 nM | –
